# In patent US9918934B2, “Linker-based lecithin microemulsion delivery vehicles” (priority 2006, dated 2018):
# Assays:
# [1] = test system: reconstructed human skin EpiDerm™ EPI-200; format: in vitro ADME
# Protocol: Lidocaine permeability was measured in vitro through reconstructed human skin EpiDerm™ EPI-200 and dorsal pig ear skin using selected formulations of examples 1 through 3. The model skin was placed in a commercial MATTEK™ Permeation Device (MPD). A test formulation (0.4 mL) was applied in the donor compartment. The receptor compartment was filled with 5 mL of PBS (0.01M phosphate, 0.137M NaCl, pH 7.4). At predetermined time, the receiver solution was withdrawn completely from the receptor compartment and was immediately replaced by fresh buffer solution. Sink conditions were maintained at all times. At 5.5 h, the experiment was terminated. All permeation experiments were conducted in triplicate at room temperature.
# Lidocaine in receiver solutions was assayed by a UV spectrophotometer ([…] PLUS™, Amersham Pharmacia Biotech, U.S.A.). Receiver solutions were diluted with methanol and the absorbance at 230 nm were measured. A linear calibration curve for lidocaine was obtained at 230 nm in a range of 0-100 μg/mL with a linearity of 0.999.
# The cumulative lidocaine amount permeated across the skin was plotted as a function of time (h), and average steady-state flux (J, μg/h/cm2) was calculated by dividing the slope from the linear part of the curve by the area of the exposed skin surface (0.256 cm2). […]
# [2] = test system: dorsal pig ear skin; format: in vitro ADME
# Protocol: The model skin was placed in a commercial MATTEK™ Permeation Device (MPD). A test formulation (0.4 mL) was applied in the donor compartment. […] At predetermined time, the receiver solution was withdrawn completely from the receptor compartment and was immediately replaced by fresh buffer solution. Sink conditions were maintained at all times. At 5.5 h, the experiment was terminated. All permeation experiments were conducted in triplicate at room temperature.
# Receiver solutions were diluted with methanol and the absorbance at 230 nm were measured.
# The cumulative lidocaine amount permeated across the skin was plotted as a function of time (h), and average steady-state flux (J, μg/h/cm2) was calculated by dividing the slope from the linear part of the curve by the area of the exposed skin surface (0.256 cm2).
# To measure the concentration of lidocaine in pig ear skin, the tissue was removed from the MATTEK™ permeation device, rinse with PBS solution and blotted with lint-free paper tissue to remove any excess of fluid. The tissue was immersed in 2 mL of methanol for a period of 24 hr. After that time, the concentration of lidocaine was measured using the HPLC method described above. The mass of lidocaine extracted is divided by the volume of the tissue (tissue thickness*cross sectional area) to obtain the equivalent lidocaine concentration in the skin. The skin permeability is calculated by dividing the transdermal flux by the lidocaine skin concentration.
# The formulation LO-32 (a Type II lecithin linker microemulsion) was reformulated using lower lecithin concentration. The transdermal flux through pig ear dorsal skin was also evaluated for selected formulations, and following the procedures described above. […] (Where: (a) is lecithin; (b) is sorbitan monooleate; (c) is octanoic acid; (d) is sodium octanoate; (e) is water; (f) is lidocaine; (g) is isopropyl myristate; and (v) is microemulsion volume. Concentrations are expressed on a weight percentage basis (w/w).)
Substance,MatTek Flux (lidocaine steady-state transdermal flux) [1],Pig ear skin Flux (lidocaine steady-state transdermal flux) [2],Pig ear skin Lidocaine in skin [2] [µg/mL],Pig skin permeability [2],Flux (lidocaine transdermal flux through excised pig ear skin) [2]
Pentanol,160 +/− 10 μg/hr-cm^2,130 +/− 20 μg/hr-cm^2,5800 ± 200,220 +/− 20 μm/hr,–
Water,320 +/− 20 μg/hr-cm^2,110 +/− 10 μg/hr-cm^2,6800 ± 400,160 +/− 20 μm/hr,70 +/− 10 μg/cm^2
